Results as given in the kinase profiling compilation of Christmann-Franck et al. (2016).

Legend:
Assay in all cases: Caliper, Mobility shift assay off-chip
[1] = system: FLT3 (human), P36888 [D835Y]
[2] = biological target: STK3 (human) (UniProt Q13188)
[3] = biological target: MAPK11 (human) (UniProt Q15759)
[4] = biological target: MAPK3 (human) (UniProt P27361)
[5] = biological target: MAPKAPK2 (human) (UniProt P49137)
[6] = biological target: PRKCH (human) (UniProt P24723)
[7] = biological target: LYN (human) (UniProt P07948)
[8] = biological target: CSNK1A1 (human) (UniProt P48729)
[9] = biological target: KDR (human) (UniProt P35968)
Sequence of KDR (human) (P35968 whole entry, looked up): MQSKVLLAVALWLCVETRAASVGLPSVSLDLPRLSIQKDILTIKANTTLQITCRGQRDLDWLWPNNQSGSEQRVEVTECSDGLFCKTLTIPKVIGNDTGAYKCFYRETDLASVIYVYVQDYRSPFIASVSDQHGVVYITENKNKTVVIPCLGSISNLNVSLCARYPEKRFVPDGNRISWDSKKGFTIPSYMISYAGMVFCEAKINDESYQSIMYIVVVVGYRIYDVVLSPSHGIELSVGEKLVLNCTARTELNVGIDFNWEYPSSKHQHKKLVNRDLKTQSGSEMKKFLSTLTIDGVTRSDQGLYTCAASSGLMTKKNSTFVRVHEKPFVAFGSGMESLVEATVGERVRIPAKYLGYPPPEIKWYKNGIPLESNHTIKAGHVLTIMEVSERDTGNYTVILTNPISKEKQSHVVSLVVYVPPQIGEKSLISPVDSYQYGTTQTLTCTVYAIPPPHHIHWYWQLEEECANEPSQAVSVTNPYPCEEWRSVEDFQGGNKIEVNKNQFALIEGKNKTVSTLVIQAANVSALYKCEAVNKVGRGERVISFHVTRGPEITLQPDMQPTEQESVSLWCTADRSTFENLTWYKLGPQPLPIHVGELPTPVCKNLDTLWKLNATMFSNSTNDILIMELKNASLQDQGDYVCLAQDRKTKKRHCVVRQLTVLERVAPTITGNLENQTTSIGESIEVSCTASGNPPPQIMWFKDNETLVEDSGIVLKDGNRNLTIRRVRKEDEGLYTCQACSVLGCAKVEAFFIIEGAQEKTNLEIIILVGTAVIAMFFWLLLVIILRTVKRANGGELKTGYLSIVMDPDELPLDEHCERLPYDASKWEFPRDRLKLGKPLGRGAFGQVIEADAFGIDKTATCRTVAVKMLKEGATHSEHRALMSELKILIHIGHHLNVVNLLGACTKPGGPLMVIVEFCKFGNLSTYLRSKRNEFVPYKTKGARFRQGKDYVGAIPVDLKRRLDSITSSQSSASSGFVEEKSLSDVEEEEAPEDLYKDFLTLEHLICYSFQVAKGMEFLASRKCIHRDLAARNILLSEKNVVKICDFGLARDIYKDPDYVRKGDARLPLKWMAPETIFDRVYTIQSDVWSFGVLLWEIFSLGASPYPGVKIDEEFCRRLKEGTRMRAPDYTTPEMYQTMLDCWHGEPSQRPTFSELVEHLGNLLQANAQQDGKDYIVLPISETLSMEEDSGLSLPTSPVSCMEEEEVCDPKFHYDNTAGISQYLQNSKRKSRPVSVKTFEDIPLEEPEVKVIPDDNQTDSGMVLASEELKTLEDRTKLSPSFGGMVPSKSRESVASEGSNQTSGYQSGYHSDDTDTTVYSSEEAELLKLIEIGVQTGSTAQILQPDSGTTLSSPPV

[10] = biological target: AURKA (human) (UniProt O14965)
Sequence of AURKA (human) (O14965 whole entry, looked up): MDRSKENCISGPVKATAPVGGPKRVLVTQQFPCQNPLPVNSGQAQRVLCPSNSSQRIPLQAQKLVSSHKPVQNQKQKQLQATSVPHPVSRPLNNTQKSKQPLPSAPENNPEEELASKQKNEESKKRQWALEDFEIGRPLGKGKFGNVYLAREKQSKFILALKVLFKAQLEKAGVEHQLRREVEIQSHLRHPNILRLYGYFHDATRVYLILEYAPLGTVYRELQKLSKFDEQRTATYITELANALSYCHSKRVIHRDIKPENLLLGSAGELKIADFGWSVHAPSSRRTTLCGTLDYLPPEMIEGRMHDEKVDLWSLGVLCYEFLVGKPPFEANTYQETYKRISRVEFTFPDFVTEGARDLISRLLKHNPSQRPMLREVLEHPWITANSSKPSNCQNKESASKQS

[11] = biological target: HCK (human) (UniProt P08631)
[12] = biological target: IRAK4 (human) (UniProt Q9NWZ3)
[13] = biological target: BMX (human) (UniProt P51813)
[14] = biological target: MAPK13 (human) (UniProt O15264)
[15] = biological target: RPS6KA4 KD1 KD2 (human) (UniProt O75676)
Sequence of RPS6KA4 KD1 KD2 (human) (O75676 whole entry, looked up): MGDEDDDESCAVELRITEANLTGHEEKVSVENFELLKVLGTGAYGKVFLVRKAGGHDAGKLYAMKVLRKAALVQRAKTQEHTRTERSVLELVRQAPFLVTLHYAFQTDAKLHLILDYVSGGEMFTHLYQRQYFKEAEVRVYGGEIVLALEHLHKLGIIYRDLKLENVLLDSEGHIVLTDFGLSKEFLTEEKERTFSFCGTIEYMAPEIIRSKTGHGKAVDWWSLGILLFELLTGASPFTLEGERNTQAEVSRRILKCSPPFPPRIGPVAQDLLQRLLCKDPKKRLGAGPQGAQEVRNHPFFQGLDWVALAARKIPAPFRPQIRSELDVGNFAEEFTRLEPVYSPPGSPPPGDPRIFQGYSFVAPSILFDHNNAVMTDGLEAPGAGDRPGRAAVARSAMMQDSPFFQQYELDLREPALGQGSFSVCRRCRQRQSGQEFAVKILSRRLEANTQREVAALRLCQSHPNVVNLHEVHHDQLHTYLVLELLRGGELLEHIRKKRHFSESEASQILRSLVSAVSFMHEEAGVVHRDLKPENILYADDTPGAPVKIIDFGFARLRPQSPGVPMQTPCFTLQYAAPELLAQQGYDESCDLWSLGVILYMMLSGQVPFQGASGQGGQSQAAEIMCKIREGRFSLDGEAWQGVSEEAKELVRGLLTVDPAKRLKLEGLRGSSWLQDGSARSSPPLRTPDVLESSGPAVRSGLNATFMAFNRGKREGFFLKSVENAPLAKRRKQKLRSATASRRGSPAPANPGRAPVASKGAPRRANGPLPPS

[16] = biological target: LCK (human) (UniProt P06239)
[17] = biological target: PRKCQ (human) (UniProt Q04759)
Sequence of PRKCQ (human) (Q04759 whole entry, looked up): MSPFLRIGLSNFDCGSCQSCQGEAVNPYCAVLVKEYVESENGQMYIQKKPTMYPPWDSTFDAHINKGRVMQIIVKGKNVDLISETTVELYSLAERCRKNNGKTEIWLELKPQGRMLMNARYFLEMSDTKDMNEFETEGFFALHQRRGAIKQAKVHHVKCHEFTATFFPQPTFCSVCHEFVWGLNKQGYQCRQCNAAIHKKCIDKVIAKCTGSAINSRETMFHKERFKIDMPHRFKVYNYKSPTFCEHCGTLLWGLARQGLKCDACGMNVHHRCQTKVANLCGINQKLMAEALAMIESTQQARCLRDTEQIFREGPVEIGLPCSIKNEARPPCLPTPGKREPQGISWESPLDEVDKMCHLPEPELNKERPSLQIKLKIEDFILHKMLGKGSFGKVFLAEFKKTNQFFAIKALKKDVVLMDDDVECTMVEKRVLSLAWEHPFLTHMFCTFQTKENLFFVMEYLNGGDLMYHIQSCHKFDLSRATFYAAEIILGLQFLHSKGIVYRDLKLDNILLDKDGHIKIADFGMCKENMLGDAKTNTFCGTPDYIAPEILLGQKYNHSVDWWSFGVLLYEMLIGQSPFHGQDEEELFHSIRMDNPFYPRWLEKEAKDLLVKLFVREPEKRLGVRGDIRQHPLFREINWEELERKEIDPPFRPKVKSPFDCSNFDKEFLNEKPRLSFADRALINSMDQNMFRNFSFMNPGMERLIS

[18] = biological target: MARK3 (human) (UniProt P27448)
[19] = biological target: DYRK1A (human) (UniProt Q13627)
[20] = biological target: SYK (human) (UniProt P43405)
[21] = system: ABL1 (human), P00519 [H396P]
[22] = biological target: RPS6KA1 KD1 KD2 (human) (UniProt Q15418)
[23] = biological target: GSK3B (human) (UniProt P49841)
[24] = biological target: MAPKAPK5 (human) (UniProt Q8IW41)
Sequence of MAPKAPK5 (human) (Q8IW41 whole entry, looked up): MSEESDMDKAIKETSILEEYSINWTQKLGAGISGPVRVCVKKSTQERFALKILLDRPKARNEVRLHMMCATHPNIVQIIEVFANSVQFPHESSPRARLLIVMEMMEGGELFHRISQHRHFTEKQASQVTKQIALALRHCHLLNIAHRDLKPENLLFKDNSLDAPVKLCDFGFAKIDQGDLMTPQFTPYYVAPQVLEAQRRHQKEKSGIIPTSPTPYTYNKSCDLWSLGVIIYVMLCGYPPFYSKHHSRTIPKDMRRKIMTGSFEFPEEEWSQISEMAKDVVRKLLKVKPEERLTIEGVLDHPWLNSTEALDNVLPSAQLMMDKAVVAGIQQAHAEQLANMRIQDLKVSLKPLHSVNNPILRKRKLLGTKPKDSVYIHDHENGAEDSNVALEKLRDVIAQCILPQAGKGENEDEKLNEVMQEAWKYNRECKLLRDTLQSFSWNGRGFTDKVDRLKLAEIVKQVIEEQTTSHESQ

[25] = biological target: PIM2 (human) (UniProt Q9P1W9)
Sequence of PIM2 (human) (Q9P1W9 whole entry, looked up): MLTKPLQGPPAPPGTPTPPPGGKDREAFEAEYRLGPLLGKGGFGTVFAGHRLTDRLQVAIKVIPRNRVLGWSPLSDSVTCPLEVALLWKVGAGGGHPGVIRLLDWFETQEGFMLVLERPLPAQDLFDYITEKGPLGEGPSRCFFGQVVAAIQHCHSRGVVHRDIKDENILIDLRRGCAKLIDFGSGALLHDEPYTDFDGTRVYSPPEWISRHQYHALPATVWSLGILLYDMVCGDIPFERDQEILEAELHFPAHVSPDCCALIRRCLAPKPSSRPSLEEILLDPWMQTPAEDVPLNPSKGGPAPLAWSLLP

[26] = biological target: AKT3 (human) (UniProt Q9Y243)
[27] = biological target: EGFR (human) (UniProt P00533)
[28] = biological target: SGK1 (human) (UniProt O00141)
[29] = biological target: PRKACA (human) (UniProt P17612)
[30] = biological target: CAMK2D (human) (UniProt Q13557)
[31] = biological target: RAF1 (human) (UniProt P04049)
[32] = biological target: PRKCB2 (human) (UniProt P05771)
[33] = biological target: MARK2 (human) (UniProt Q7KZI7)
[34] = biological target: CHEK1 (human) (UniProt O14757)
Sequence of CHEK1 (human) (O14757 whole entry, looked up): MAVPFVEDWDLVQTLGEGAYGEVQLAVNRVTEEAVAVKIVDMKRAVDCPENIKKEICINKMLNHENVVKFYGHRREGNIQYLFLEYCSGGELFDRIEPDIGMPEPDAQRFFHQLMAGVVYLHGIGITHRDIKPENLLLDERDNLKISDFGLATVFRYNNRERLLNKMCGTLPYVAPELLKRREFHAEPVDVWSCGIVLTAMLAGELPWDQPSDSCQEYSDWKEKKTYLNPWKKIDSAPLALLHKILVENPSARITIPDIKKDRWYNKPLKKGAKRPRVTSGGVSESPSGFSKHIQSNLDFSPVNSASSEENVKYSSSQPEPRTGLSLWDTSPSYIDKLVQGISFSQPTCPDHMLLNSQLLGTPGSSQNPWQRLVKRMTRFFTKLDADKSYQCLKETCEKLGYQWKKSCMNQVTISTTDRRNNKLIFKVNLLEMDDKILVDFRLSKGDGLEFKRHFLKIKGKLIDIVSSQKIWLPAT

Sequence of STK3 (human) (Q13188 whole entry, looked up): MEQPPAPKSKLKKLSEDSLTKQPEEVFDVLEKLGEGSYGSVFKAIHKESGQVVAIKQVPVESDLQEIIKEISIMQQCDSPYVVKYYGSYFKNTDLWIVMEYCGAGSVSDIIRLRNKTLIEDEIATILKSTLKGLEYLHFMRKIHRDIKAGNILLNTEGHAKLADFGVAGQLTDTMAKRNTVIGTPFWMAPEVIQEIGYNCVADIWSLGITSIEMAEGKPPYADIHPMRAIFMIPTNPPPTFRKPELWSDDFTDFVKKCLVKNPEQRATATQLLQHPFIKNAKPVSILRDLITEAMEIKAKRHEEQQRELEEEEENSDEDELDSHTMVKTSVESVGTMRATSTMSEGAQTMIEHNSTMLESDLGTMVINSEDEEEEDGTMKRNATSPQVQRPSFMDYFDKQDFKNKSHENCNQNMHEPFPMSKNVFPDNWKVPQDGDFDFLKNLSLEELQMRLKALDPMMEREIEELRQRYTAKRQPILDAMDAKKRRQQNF

O=C(CCc1ccc2ccc3ncc(C4CCNCC4)cc3c(=O)c2c1)NCc1ccccn1
inhibition ([1]; compound 0.1 µM): -1% | inhibition ([1]; compound 1.0 µM): 3.4% | inhibition ([2]; compound 0.1 µM): 1.9% | inhibition ([2]; compound 1.0 µM): 4.5% | inhibition ([3]; compound 0.1 µM): 0.6% | inhibition ([3]; compound 1.0 µM): -1% | inhibition ([4]; compound 0.1 µM): 1.7% | inhibition ([4]; compound 1.0 µM): -0.5% | inhibition ([5]; compound 0.1 µM): -1.1% | inhibition ([5]; compound 1.0 µM): 0.8% | inhibition ([6]; compound 0.1 µM): 7.2% | inhibition ([6]; compound 1.0 µM): -8.7% | inhibition ([7]; compound 0.1 µM): 3.5% | inhibition ([7]; compound 1.0 µM): -3.2% | inhibition ([8]; compound 0.1 µM): 5% | inhibition ([8]; compound 1.0 µM): -0.6% | inhibition ([9]; compound 0.1 µM): 4.9% | inhibition ([9]; compound 1.0 µM): 16.8% | inhibition ([10]; compound 0.1 µM): 3.7% | inhibition ([10]; compound 1.0 µM): 22.4% | inhibition ([11]; compound 0.1 µM): -1.8% | inhibition ([11]; compound 1.0 µM): 3.1% | inhibition ([12]; compound 0.1 µM): -10.2% | inhibition ([12]; compound 1.0 µM): 0.3% | inhibition ([13]; compound 0.1 µM): -10.4% | inhibition ([13]; compound 1.0 µM): 3.2% | inhibition ([14]; compound 0.1 µM): -1.8% | inhibition ([14]; compound 1.0 µM): 3.9% | inhibition ([15]; compound 0.1 µM): -5.8% | inhibition ([15]; compound 1.0 µM): 1% | inhibition ([16]; compound 0.1 µM): -3.4% | inhibition ([16]; compound 1.0 µM): -2.9% | inhibition ([17]; compound 0.1 µM): 3.3% | inhibition ([17]; compound 1.0 µM): 0.5% | inhibition ([18]; compound 0.1 µM): 0.7% | inhibition ([18]; compound 1.0 µM): -4.4% | inhibition ([19]; compound 0.1 µM): 5.6% | inhibition ([19]; compound 1.0 µM): -6.7% | inhibition ([20]; compound 0.1 µM): -0.6% | inhibition ([20]; compound 1.0 µM): -0.5% | inhibition ([21]; compound 0.1 µM): 1.4% | inhibition ([21]; compound 1.0 µM): 1.1% | inhibition ([22]; compound 0.1 µM): -2.2% | inhibition ([22]; compound 1.0 µM): 4% | inhibition ([23]; compound 0.1 µM): -0.6% | inhibition ([23]; compound 1.0 µM): -3.3% | inhibition ([24]; compound 0.1 µM): -4.3% | inhibition ([24]; compound 1.0 µM): 2.9% | inhibition ([25]; compound 0.1 µM): -0.1% | inhibition ([25]; compound 1.0 µM): -3.2% | inhibition ([26]; compound 0.1 µM): -12.5% | inhibition ([26]; compound 1.0 µM): 2.1% | inhibition ([27]; compound 0.1 µM): -5.8% | inhibition ([27]; compound 1.0 µM): 9.3% | inhibition ([28]; compound 0.1 µM): -2.2% | inhibition ([28]; compound 1.0 µM): -6% | inhibition ([29]; compound 0.1 µM): 2.5% | inhibition ([29]; compound 1.0 µM): 4.8% | inhibition ([30]; compound 0.1 µM): -22.5% | inhibition ([30]; compound 1.0 µM): -4.6% | inhibition ([31]; compound 0.1 µM): 3.2% | inhibition ([31]; compound 1.0 µM): -9.1% | inhibition ([32]; compound 0.1 µM): 3.3% | inhibition ([32]; compound 1.0 µM): -13.3% | inhibition ([33]; compound 0.1 µM): -4.6% | inhibition ([33]; compound 1.0 µM): -1.8% | inhibition ([34]; compound 0.1 µM): -0.6% | inhibition ([34]; compound 1.0 µM): 2.9%
